Molecules are shown by their SMILES. A value given as a limit tells only on which side of the number the result lay.

T1 sequence (P13945 whole entry): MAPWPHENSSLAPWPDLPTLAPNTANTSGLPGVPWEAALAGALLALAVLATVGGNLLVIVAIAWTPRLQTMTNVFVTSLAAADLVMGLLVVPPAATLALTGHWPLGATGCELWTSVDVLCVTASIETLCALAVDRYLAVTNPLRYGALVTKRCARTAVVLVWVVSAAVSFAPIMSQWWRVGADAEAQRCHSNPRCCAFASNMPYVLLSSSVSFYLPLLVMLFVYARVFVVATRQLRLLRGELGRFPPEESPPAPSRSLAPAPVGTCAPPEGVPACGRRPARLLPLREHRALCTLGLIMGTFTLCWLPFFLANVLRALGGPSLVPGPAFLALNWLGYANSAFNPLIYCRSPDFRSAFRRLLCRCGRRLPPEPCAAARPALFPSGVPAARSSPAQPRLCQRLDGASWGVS

The first assay has as its target T1, human β3 adrenergic receptor (Homo sapiens, UniProt P13945).
T1 construct: expressed in transfected cells; host or cells: Chinese hamster ovary (CHO) cells, stably transfected
Briefly: Beta-3 agonist in vitro functional assay (cAMP production, LANCE, CHO cells stably transfected with cloned β3 receptor). Type of assay: cell-based. The following applies: cAMP production in CHO cells expressing human β3 AR; ranges as class symbols; read-out: Human β3 agonist functional activity. How it is done: Functional Assay: cAMP production in response to ligand is measured according to Barton, et al. (1991, Agonist-induced desensitization of D2 dopamine receptors in human Y-79 retinoblastoma cells. Mol. Pharmacol. […]) modified as follows. cAMP production is measured using a homogenous time-resolved fluorescence resonance energy transfer immunoassay (LANCE™, Perkin Elmer) according to the manufacture's instructions. Chinese hamster ovary (CHO) cells, stably transfected with the cloned β-adrenergic receptor (β1, β2 or β3) are harvested after 3 days of subculturing. Harvesting of cells is done with Enzyme-free Dissociation Media (Specialty Media). Cells are then counted and resuspended in assay buffer (Hank's Balanced salt solution supplemented with 5 mM HEPES, […]) containing a phosphodiesterase inhibitor (IBMX, 0.6 mM). The reaction is initiated by mixing 6,000 cells in 6 μL with 6 μL Alexa Fluor labeled cAMP antibody (LANCE™ kit) which is then added to an assay well containing 12 μL of compound (diluted in assay buffer to 2× final concentration). The reaction proceeds for 30 minutes at RT and is terminated by the addition of 24 ul detection buffer (LANCE™ kit). The assay plate is then incubated for 1 h at RT and time-resolved fluorescence measured on a Perkin Elmer Envision reader or equivalent. The unknown cAMP level is determined by comparing fluorescence levels to a cAMP standard curve.
The non-selective, full agonist 13-adrenergic ligand isoproterenol is used at all three receptors to determine maximal stimulation. The human β3 adrenergic receptor (AR) selective ligand (S)—N-[4-[2-[[2-hydroxy-3-(4-hydroxyphenoxy)propyl]amino]ethyl]-phenyl]-4-iodobenzenesulfonamide is used as a control in all assays. Isoproterenol is titrated at a final concentration in the assay of 10^-10 M to 10-5 and the selective ligand (S)—N-[4-[2-[[2-hydroxy-3-(4-hydroxyphenoxy)propyl]amino]ethyl]phenyl]-4-iodobenzenesulfonamide is titrated at the β3 receptor at concentration of 10^-10 M to 10^-5 M. Unknown ligands are titrated at all 3 β-adrenergic receptor subtypes at a final concentration in the assay of 10^-10 M to 10^-5 M to determine the EC50. The EC50 is defined as the concentration of compound that gives 50% activation of its own maximum. Data are analyzed using Microsoft Excel and Graphpad Prism or an internally developed data analysis software package.
Background: Changes in cAMP serve as a functional read-out for many G protein-coupled receptors.
Turning to `O=C(c1ccc(C[C@@H]2CC[C@H]([C@H](O)COc3ccccc3)N2)cc1)N1C[C@@H]2[C@H](C1)[C@H]2n1cnnn1` [Example 5], the EC50 was less than 1 nM.

Turning to `O=C(c1ccc(C[C@@H]2CC[C@H]([C@H](O)COc3ccccc3)N2)cc1)N1CCC(n2nccn2)CC1` [Example 2], the EC50 was 1 to 10 nM.

On to `Cn1nnnc1C1CCN(C(=O)c2ccc(C[C@@H]3CC[C@H]([C@H](O)COc4ccccc4)N3)cc2)CC1` [Example 4], for which the EC50 is less than 1 nM.

Regarding `O=C(c1ccc(C[C@@H]2CC[C@H]([C@H](O)COc3ccccc3)N2)cc1)N1CCN(Cc2ccncn2)CC1` [Example 6], the EC50 lay within 1 to 10 nM.

As to `O=C(c1ccc(C[C@@H]2CC[C@H]([C@H](O)COc3ccccc3)N2)cc1)N1CCC(n2ccnn2)CC1` [Example 3], the EC50 is 11 to 100 nM.

Still in this assay, the particulars now being: cAMP production in CHO cells expressing human β3 AR; read-out: human Beta-3 agonist functional activity.
On to `O=C(c1ccc(C[C@@H]2CC[C@H]([C@H](O)COc3ccccc3)N2)cc1)N1CCC(n2cccn2)CC1` [Example 1], for which the EC50 was in the range of 1 to 10 nM.

The record behind these values is patent US8933102B2, “Pyrrolidine derived β3 adrenergic receptor agonists” (Merck Sharp & Dohme Corp., priority 2010, dated 2015).
